Test results: the supplement of paper PMC11368000

What was measured:
Conditions in all cases: exposure time: 90 min
1083 = donor line of iPSC-derived cardiomyocytes; assay: POD (EC05) for decrease in beat frequency (negative chronotrope) vs vehicle; higher = less potent (higher point of departure)
Procedure: (§1)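 Human iPSC-derived cardiomyocytes from 16 donors were exposed for 90 min at 37 °C to each PFAS at 0.1, 1, 10 and 100 µM in 0.5% DMSO, 384-well plates. Kinetic Ca2+ flux (FLIPR) and Hoechst nuclei counts were normalised to vehicle wells and fitted with a hierarchical Bayesian Hill model to give donor-specific PODs: EC05 for beat-rate increase or decrease and for decay-to-rise ratio increase (QT proxy), EC95 for peak-frequency loss (asystole), EC10 for total cell number loss. 0.03 µM is the lower bound.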

1118 = donor line of iPSC-derived cardiomyocytes; assay: as above
Procedure: as §1

11235 = donor line of iPSC-derived cardiomyocytes; assay: as above
Procedure: as §1

1309 = donor line of iPSC-derived cardiomyocytes; assay: as above
Procedure: as §1

1368 = donor line of iPSC-derived cardiomyocytes; assay: as above
Procedure: as §1

1392 = donor line of iPSC-derived cardiomyocytes; assay: as above
Procedure: as §1

1434 = donor line of iPSC-derived cardiomyocytes; assay: as above
Procedure: as §1

1516 [1] = donor line of iPSC-derived cardiomyocytes; assay: as above
Procedure: as §1

1518 [2] = donor line of iPSC-derived cardiomyocytes; assay: as above
Procedure: as §1

1531 [3] = donor line of iPSC-derived cardiomyocytes; assay: as above
Procedure: as §1

1535 = donor line of iPSC-derived cardiomyocytes; assay: as above
Procedure: as §1

1565 = donor line of iPSC-derived cardiomyocytes; assay: as above
Procedure: as §1

20032 = donor line of iPSC-derived cardiomyocytes; assay: as above
Procedure: as §1

20084 = donor line of iPSC-derived cardiomyocytes; assay: as above
Procedure: as §1

30145 [4] = donor line of iPSC-derived cardiomyocytes; assay: as above
Procedure: as §1

30171 = donor line of iPSC-derived cardiomyocytes; assay: as above
Procedure: as §1

1518 [5] = assay: POD (EC05) for increase in Ca2+ transient decay-to-rise ratio (QT prolongation) vs vehicle; higher = less potent (higher point of departure)
Procedure, shortened: (§2)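 Human iPSC-derived cardiomyocytes from 16 donors were cultured 14 days in gelatin-coated 384-well plates and loaded 2 h with fluorescent Ca2+ dye. They were then exposed for 90 min at 37 °C to 0.1, 1, 10 and 100 µM (final, 0.5% DMSO). Ca2+ flux was recorded on a FLIPR Tetra (8 frames/s, 100 s) before and after exposure. Donor-specific points of departure came from hierarchical Bayesian Hill fits to vehicle-normalised beat frequency, decay-to-rise ratio or peak frequency. Thresholds were 5% change, or 95% loss for peak frequency.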

1531 [6] = assay: as above
Procedure, shortened: as §2

1516 [7] = assay: as above
Procedure, shortened: as §2

30145 [8] = assay: POD (EC05) for increase in beat frequency (positive chronotrope) vs vehicle; higher = less potent (higher point of departure)
Procedure, shortened: as §2

SMILES	POD vs vehicle 1083	POD vs vehicle 1118	POD vs vehicle 11235	POD vs vehicle 1309	POD vs vehicle 1368	POD vs vehicle 1392	POD vs vehicle 1434	POD vs vehicle 1516 [1]	POD vs vehicle 1518 [2]	POD vs vehicle 1531 [3]	POD vs vehicle 1535	POD vs vehicle 1565	POD vs vehicle 20032	POD vs vehicle 20084	POD vs vehicle 30145 [4]	POD vs vehicle 30171	POD vs vehicle 1518 [5]	POD vs vehicle 1531 [6]	POD vs vehicle 1516 [7]	POD vs vehicle 30145 [8]
NC(=O)C(F)(F)C(F)(F)C(F)(F)C(F)F	> 100 µM	> 100 µM	> 100 µM	> 100 µM	> 100 µM	> 100 µM	> 100 µM	> 100 µM	> 100 µM	> 100 µM	> 100 µM	> 100 µM	> 100 µM	> 100 µM	> 100 µM	> 100 µM	0.19 µM	2.04 µM		
O=C(O)C(F)(F)C(F)(F)C(F)(F)C(F)(F)C(F)(F)C(F)(F)C(F)(F)C(F)(F)F [Perfluorononanoic_acid]	> 100 µM	11 µM	2.8 µM	35.2 µM	> 100 µM	> 100 µM	20 µM	20.4 µM	51.1 µM	40.2 µM	31.8 µM	> 100 µM	27.9 µM	> 100 µM	> 100 µM	7.86 µM		> 100 µM		
O=S(=O)(O)CCC(F)(F)C(F)(F)C(F)(F)C(F)(F)F [4:2 Fluorotelomer sulfonic acid]	> 100 µM	> 100 µM	> 100 µM	> 100 µM	> 100 µM	> 100 µM	> 100 µM	> 100 µM	> 100 µM	> 100 µM	> 100 µM	> 100 µM	> 100 µM	> 100 µM	> 100 µM	> 100 µM	> 100 µM	> 100 µM	> 100 µM	
CN(CCO)S(=O)(=O)C(F)(F)C(F)(F)C(F)(F)C(F)(F)C(F)(F)C(F)(F)C(F)(F)C(F)(F)F [N-Methyl-N-(2-hydroxyethyl)perfluorooctanesulfonamide]	16.9 µM		35.4 µM	> 100 µM	> 100 µM	> 100 µM	42.2 µM	> 100 µM	> 100 µM	> 100 µM	> 100 µM	> 100 µM	> 100 µM	> 100 µM	> 100 µM	20.2 µM	> 100 µM	> 100 µM	> 100 µM	> 100 µM
OCC(F)(F)C(F)(F)C(F)(F)CO [Hexafluoroamylene_glycol]	> 100 µM	> 100 µM	> 100 µM	> 100 µM	> 100 µM	> 100 µM	> 100 µM	> 100 µM	> 100 µM	> 100 µM	> 100 µM	> 100 µM	> 100 µM	> 100 µM	> 100 µM	> 100 µM		> 100 µM		
